ChEMBL document CHEMBL1201862, “PubChem BioAssay data set” (2004)
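Grown in 96-well plates, cells were treated for 48 hours with each compound at five concentrations. Insufficient inhibition: endpoint recorded as highest concentration tested. GI50: concentration for 50% inhibition of growth.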 Active and inactive are the calls of the source. Cut-off read from the data, not from the text of the source: active = GI50 up to about 1.1 µM and inactive = higher.

What was measured:
Test in all cases: NCI tumour cell line growth inhibition, 48 h
SK-OV-3 = tested on: SK-OV-3
SN12C = tested on: SN12C
NCI-H23 = tested on: NCI-H23
SNB-19 = tested on: SNB-19
OVCAR-5 = tested on: OVCAR-5
SK-MEL-2 = tested on: SK-MEL-2
K562 = tested on: K562
SF-295 = tested on: SF-295
SK-MEL-5 = tested on: SK-MEL-5
Malme-3M = tested on: Malme-3M
RXF 393 = tested on: RXF 393
HT-29 = tested on: HT-29
UO-31 = tested on: UO-31
SK-MEL-28 = tested on: SK-MEL-28
NCI-H522 = tested on: NCI-H522
U-251 = tested on: U-251
TK-10 = tested on: TK-10

| SMILES | GI50 (SK-OV-3) | GI50 (SN12C) | GI50 (NCI-H23) | GI50 (SNB-19) | GI50 (OVCAR-5) | GI50 (SK-MEL-2) | GI50 (K562) | GI50 (SF-295) | GI50 (SK-MEL-5) | GI50 (Malme-3M) | GI50 (RXF 393) | GI50 (HT-29) | GI50 (UO-31) | GI50 (SK-MEL-28) | GI50 (NCI-H522) | GI50 (U-251) | GI50 (TK-10) |
| --- | --- | --- | --- | --- | --- | --- | --- | --- | --- | --- | --- | --- | --- | --- | --- | --- | --- |
| CC(=O)OCC1OC(n2cc(F)c(=O)[nH]c2=O)C(NC(=O)OCc2ccccc2)C(OC(C)=O)C1OC(C)=O (configuration not stated) | > 100 µM (inactive) | > 100 µM (inactive) | > 100 µM (inactive) | > 100 µM (inactive) | > 100 µM (inactive) | > 100 µM (inactive) | > 100 µM (inactive) | > 100 µM (inactive) | > 100 µM (inactive) | > 100 µM (inactive) | > 100 µM (inactive) | > 100 µM (inactive) | > 100 µM (inactive) | > 100 µM (inactive) | > 95.3 µM (inactive) | > 100 µM (inactive) | – |
| O=NN(CCCl)C(=O)NC1CCSc2ccccc21 (configuration not stated) | > 100 µM (inactive) | > 100 µM (inactive) | > 100 µM (inactive) | > 90.2 µM (inactive) | > 100 µM (inactive) | > 100 µM (inactive) | > 62.4 µM (inactive) | 57.8 µM (inactive) | > 100 µM (inactive) | > 100 µM (inactive) | > 100 µM (inactive) | > 100 µM (inactive) | > 91.2 µM (inactive) | > 58.2 µM (inactive) | > 100 µM (inactive) | 58.2 µM (inactive) | – |
| Nc1ncnc2c1ncn2[C@@H]1O[C@H](COP(=O)(O)O)[C@@H](O)[C@@H]1O | > 50 µM (inactive) | > 50 µM (inactive) | > 50 µM (inactive) | > 50 µM (inactive) | > 40.7 µM (inactive) | > 50 µM (inactive) | > 50 µM (inactive) | > 50 µM (inactive) | > 50 µM (inactive) | > 50 µM (inactive) | > 50 µM (inactive) | > 50 µM (inactive) | > 50 µM (inactive) | > 50 µM (inactive) | > 50 µM (inactive) | > 50 µM (inactive) | – |
| CCOC(=O)[C@H]1Nc2c(cccc2[N+](=O)[O-])C2c3ccccc3CC21 (some centres not stated) | – | > 100 µM (inactive) | > 100 µM (inactive) | > 100 µM (inactive) | > 100 µM (inactive) | > 100 µM (inactive) | > 100 µM (inactive) | 35.6 µM (inactive) | > 100 µM (inactive) | > 100 µM (inactive) | 3.15 µM (inactive) | 18.3 µM (inactive) | > 100 µM (inactive) | > 100 µM (inactive) | > 100 µM (inactive) | > 100 µM (inactive) | > 100 µM (inactive) |
| COc1ccc(/C=N/NC(=O)NCCCN(C)C)cc1 | > 100 µM (inactive) | > 100 µM (inactive) | > 100 µM (inactive) | > 100 µM (inactive) | – | > 100 µM (inactive) | > 100 µM (inactive) | > 100 µM (inactive) | > 100 µM (inactive) | > 100 µM (inactive) | > 100 µM (inactive) | > 100 µM (inactive) | > 100 µM (inactive) | > 100 µM (inactive) | > 100 µM (inactive) | > 100 µM (inactive) | > 100 µM (inactive) |
| Nc1nc(SCCC/C=C/I)nc2c1ncn2C1OC(CO)C(O)C1O (configuration not stated) | > 202 µM (inactive) | > 202 µM (inactive) | > 202 µM (inactive) | > 202 µM (inactive) | > 202 µM (inactive) | > 202 µM (inactive) | > 202 µM (inactive) | > 202 µM (inactive) | > 202 µM (inactive) | > 202 µM (inactive) | – | > 202 µM (inactive) | > 202 µM (inactive) | > 202 µM (inactive) | > 202 µM (inactive) | > 202 µM (inactive) | > 202 µM (inactive) |
| COC1=CC(=O)c2ccccc2C1(C)C1=NC(C)(C)CO1 (configuration not stated) | > 100 µM (inactive) | > 100 µM (inactive) | > 100 µM (inactive) | > 100 µM (inactive) | – | > 100 µM (inactive) | > 100 µM (inactive) | > 100 µM (inactive) | > 100 µM (inactive) | > 100 µM (inactive) | > 100 µM (inactive) | > 100 µM (inactive) | > 100 µM (inactive) | > 100 µM (inactive) | > 100 µM (inactive) | > 100 µM (inactive) | > 100 µM (inactive) |
| O=C1C2=C(c3ccccc31)C(c1ccc(Cl)cc1)NC(S)=N2 (configuration not stated) | 69.2 µM (inactive) | 17.2 µM (inactive) | 17.3 µM (inactive) | 26.3 µM (inactive) | 46.7 µM (inactive) | 23.3 µM (inactive) | 19 µM (inactive) | 15.5 µM (inactive) | 33.5 µM (inactive) | 28.2 µM (inactive) | – | 33.8 µM (inactive) | 14.9 µM (inactive) | 17.1 µM (inactive) | 20.1 µM (inactive) | 17.5 µM (inactive) | 22.8 µM (inactive) |
| Nc1ccc2[nH]c3c(-c4ccccc4)nccc3c2c1 | 54.2 µM (inactive) | > 87.7 µM (inactive) | > 73.6 µM (inactive) | > 100 µM (inactive) | > 88.3 µM (inactive) | > 100 µM (inactive) | 24.4 µM (inactive) | 41.2 µM (inactive) | 19.8 µM (inactive) | 76.4 µM (inactive) | 38.2 µM (inactive) | 36.1 µM (inactive) | 37.7 µM (inactive) | > 100 µM (inactive) | 59.2 µM (inactive) | 75 µM (inactive) | – |
| C=C1C(=O)C[C@@]23CCC[C@@]12CC(O)C3 (some centres not stated) | 28.1 µM (inactive) | 16.9 µM (inactive) | 21.8 µM (inactive) | 85.7 µM (inactive) | 23.4 µM (inactive) | 24.6 µM (inactive) | 24.5 µM (inactive) | 37.8 µM (inactive) | 10.5 µM (inactive) | 0.855 µM (active) | 13.7 µM (inactive) | 14.6 µM (inactive) | 37.6 µM (inactive) | 21.5 µM (inactive) | 2.37 µM (inactive) | 40.3 µM (inactive) | – |
| CCCCCC/C(CC(=O)CCC(=O)NCCc1ccccc1)=N\NC(=O)c1ccc2ccccc2c1O | – | 49.5 µM (inactive) | 31.6 µM (inactive) | 59.8 µM (inactive) | 21.5 µM (inactive) | 20 µM (inactive) | – | 48 µM (inactive) | 29.5 µM (inactive) | 42.4 µM (inactive) | 50.4 µM (inactive) | 55.3 µM (inactive) | 35.4 µM (inactive) | 45.9 µM (inactive) | – | 37.9 µM (inactive) | 64.7 µM (inactive) |
| CCOC(=O)c1ccc(N[C@@H]2c3cc4c(cc3C(c3cc(OC)c(O)c(OC)c3)[C@H]3C(=O)OCC32)OCO4)cc1O (some centres not stated) | 0.738 µM (active) | 1.64 µM (inactive) | 0.9 µM (active) | 0.652 µM (active) | 1.06 µM (active) | 0.809 µM (active) | 0.78 µM (active) | 0.498 µM (active) | 1.19 µM (inactive) | 0.757 µM (active) | 1.88 µM (inactive) | 0.546 µM (active) | 0.34 µM (active) | 1.22 µM (inactive) | 0.665 µM (active) | 0.92 µM (active) | – |
| [N-]=[N+]=CC(=O)c1ccccc1C#CCCc1ccccc1 | 15.1 µM (inactive) | 35.5 µM (inactive) | 21.5 µM (inactive) | 38.3 µM (inactive) | 50.5 µM (inactive) | 27.2 µM (inactive) | 27.5 µM (inactive) | 40.4 µM (inactive) | 15.7 µM (inactive) | 27.4 µM (inactive) | 30 µM (inactive) | 16.6 µM (inactive) | 22.7 µM (inactive) | 48.2 µM (inactive) | 1.05 µM (active) | 10.2 µM (inactive) | 72.8 µM (inactive) |
| Nc1nc(Cl)cc(NCCCCCCCCCCCCNc2cc(Cl)nc(N)n2)n1 | 32.4 µM (inactive) | 32.7 µM (inactive) | 0.0136 µM (active) | – | – | 34.4 µM (inactive) | 0.0655 µM (active) | 1.41 µM (inactive) | 0.0861 µM (active) | 24.4 µM (inactive) | 9.75 µM (inactive) | 10.5 µM (inactive) | 31.7 µM (inactive) | 7.67 µM (inactive) | – | 0.345 µM (active) | 23.6 µM (inactive) |
| O=C(Nc1cccc(C(F)(F)F)c1)C(=O)C(C(=O)c1ccc(Cl)c(Cl)c1)C1OC(=O)c2ccccc21 (configuration not stated) | > 100 µM (inactive) | 36.6 µM (inactive) | 27.4 µM (inactive) | 37.8 µM (inactive) | 62.4 µM (inactive) | – | 44 µM (inactive) | – | – | 15.6 µM (inactive) | 14.7 µM (inactive) | 29.2 µM (inactive) | 55.1 µM (inactive) | – | 28.8 µM (inactive) | 23.1 µM (inactive) | > 100 µM (inactive) |
| [N-]=[N+]=CC(=O)OCC(N)C(=O)O (configuration not stated) | 2.42 µM (inactive) | 0.421 µM (active) | 1.04 µM (active) | 2.88 µM (inactive) | 14.6 µM (inactive) | 3.28 µM (inactive) | 0.286 µM (active) | 0.923 µM (active) | 0.847 µM (active) | 54.8 µM (inactive) | 15.7 µM (inactive) | 0.177 µM (active) | 2.61 µM (inactive) | 3.35 µM (inactive) | 0.54 µM (active) | 0.502 µM (active) | – |
| CC1(C)CCc2cc3c(cc2O1)OC(C)(C)CC3=O | > 100 µM (inactive) | 65.5 µM (inactive) | 91.6 µM (inactive) | – | 46.8 µM (inactive) | > 100 µM (inactive) | 44.6 µM (inactive) | > 100 µM (inactive) | 21.1 µM (inactive) | – | – | 35.6 µM (inactive) | 40.3 µM (inactive) | – | 2.39 µM (inactive) | 90.8 µM (inactive) | – |
| CCCCCC1CC(C(C)=O)CN1c1ccc(F)cc1 (configuration not stated) | – | 48.5 µM (inactive) | 24.8 µM (inactive) | > 10 µM (inactive) | > 100 µM (inactive) | 38.9 µM (inactive) | – | 21.2 µM (inactive) | 19.8 µM (inactive) | 54.7 µM (inactive) | 41 µM (inactive) | 30.8 µM (inactive) | 37.4 µM (inactive) | 54.5 µM (inactive) | 21.2 µM (inactive) | 41.5 µM (inactive) | 98.6 µM (inactive) |
